Laboratory results taken from paper PMC12410723, “Structure-function studies of Vibrio cholerae quorum-sensing receptor CqsR signal recognition” (PLOS Pathogens, 2025).

Tests used:
[1] = molecular target: CqsR periplasmic domain (CqsRp) (Vibrio cholerae, UniProt Q9KR16); conditions: MST binding studies, summary of Fig 4
CqsR-Y169A = CqsR-Y169A strain, exogenously added ethanolamine
CqsR-T196A = CqsR-T196A strain, exogenously added ethanolamine
CqsR-D198N = CqsR-D198N strain, exogenously added ethanolamine
CqsR-W151A = CqsR-W151A strain, exogenously added ethanolamine
WT CqsR = WT CqsR strain, exogenously added ethanolamine
CqsR-D171A = CqsR-D171A strain, exogenously added ethanolamine
CqsR = conditions: in vivo / in culture, high-cell-density phenotype; cited from earlier work
CqsRp = conditions: thermal unfolding; cited from earlier work

With `CCC(N)CO` (stereo not shown) [2-amino-1-butanol] as the compound, how does the “CqsR binding (in words)” value [1] read?
The value was “Weak CqsR binding”.

Which “CqsR binding (in words)” value [1] does the source give for `CC[C@H](N)CO` [(S)-(+)-2-amino-1-butanol] here?
Its value is “Weak CqsR binding”.

For `C[C@H](N)C(=O)O` [Alanine, alanine], which “CqsR binding (in words)” value [1] is on record?
The value was “not tolerated”.

With `NCCO` [Ethanolamine, ethanolamine] as the compound, how does the “qrr4 transcription (bioluminescence)” value (CqsR-Y169A) read?
The value was “reduced to a level comparable to that of the WT”.

What about the “qrr4 transcription (bioluminescence)” value (CqsR-T196A) of the same compound?
The value was “reduced to a level comparable to that of the WT”.

And the “qrr4 transcription (bioluminescence)” value (CqsR-D198N)?
The value was “completely irresponsive”.

What about the “qrr4 transcription (bioluminescence)” value (CqsR-W151A) of the same compound?
Its value is “intermediate phenotype”.

And the “qrr4 transcription (bioluminescence)” value (WT CqsR)?
The value was “reduced in a dose-dependent manner”.

And the “qrr4 transcription (bioluminescence)” value (CqsR-D171A)?
Its value is “intermediate phenotype”.

And the CqsR signaling agonism (CqsR)?
Its CqsR signaling agonism is “acted as CqsR signaling agonists”.

For `OCCO` [Ethylene glycol, ethylene glycol], which “CqsR binding (in words)” value [1] is on record?
The value was “No binding”.

With `NCCN` [Ethylenediamine, ethylenediamine] as the compound, how does the “CqsR binding (in words)” value [1] read?
Its value is “Weak CqsR binding”.

For `OCC(O)CO` [Glycerol, glycerol], which “CqsR binding (in words)” value [1] is on record?
The value was “No binding”.

With `NCC(=O)O` [Glycine, glycine] as the compound, how does the “CqsR binding (in words)” value [1] read?
The value was “not tolerated”.

Which CqsRp melting temperature (CqsRp) does the source give for `C[C@H](N)CO` [L-alaninol] here?
The CqsRp melting temperature was “increased”.

Which CqsRp melting temperature (CqsRp) does the source give for `NC(CO)CO` [Serinol, serinol] here?
The CqsRp melting temperature was “increased”.

Which “CqsR binding (in words)” value [1] does the source give for `NC(CO)(CO)CO` [Tris, tris] here?
The value was “Weak CqsR binding”.

With `NCCS` [cysteamine] as the compound, how does the “CqsR binding (in words)” value [1] read?
Its value is “not tolerated”.

With `NCC(N)=O` [glycinamide] as the compound, how does the “CqsR binding (in words)” value [1] read?
The value was “not tolerated”.

With `CCC(N)CC` [pentan-3-amine] as the compound, how does the “CqsR binding (in words)” value [1] read?
Its value is “not tolerated”.

Which “CqsR binding (in words)” value [1] does the source give for `CCCO` [propanol] here?
The value was “No binding”.

Which “CqsR binding (in words)” value [1] does the source give for `CCCN` [propylamine] here?
The value was “not tolerated”.
